US10596193B2, “Copper (I) complexes with glycine, pyruvate, and succinate” (C LAB PHARMA INTERNATIONAL, S.A., priority 2013, dated 2020)

Test system: lymphoblasts from autistic donors with mitochondrial dysfunction (A)
Details: 500 μM copper (I) glycinate, measured by oxygen consumption rate, vs cells without the copper (I) complex, FIG. 17 panel B
Procedure: ATP-linked respiration, proton leak, maximal respiratory capacity, and reserve capacity were determined as measured by the cells' oxygen consumption rate.

NCC(=O)[O-].[Cu+] [copper (I) glycinate]
proton leak: significantly reduced proton leak
